# In the supplement of paper PMC10307832:
# Assays:
# Assay in all cases: relative viability (nuclei count vs DMSO), 5 days (fraction); higher = more cells survive
# UMC-11 = system: UMC-11
# Method in brief: (§1)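 Relative viability equals treated-well nuclei counts divided by vehicle-well nuclei counts. Counts came from 4× images of lung cancer cell lines grown in 1536-well plates for 5 days after pin-tool dosing on the day after seeding. Dosing used one drug alone or a fixed anchor-drug dose plus five library-drug doses (not always all listed) in √10 steps, and values are medians of duplicate plates.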
# BEN = system: BEN
# Method in brief: as §1
# NCI-H2126 = system: NCI-H2126
# Method in brief: as §1
# HCC-78 = system: HCC-78
# Method in brief: as §1
# NCI-H1395 = system: NCI-H1395
# Method in brief: as §1
# SW 900 = system: SW 900
# Method in brief: as §1
# LC-2-ad = system: LC-2-ad
# Method in brief: as §1
# EMC-BAC-2 = system: EMC-BAC-2
# Method in brief: as §1
# LOU-NH91 = system: LOU-NH91
# Method in brief: as §1
# COR-L 105 = system: COR-L 105
# Method in brief: as §1
# RERF-LC-KJ = system: RERF-LC-KJ
# Method in brief: as §1
# HOP-62 = system: HOP-62
# Method in brief: as §1
# LXF-289 = system: LXF-289
# Method in brief: as §1
# 201T = system: 201T
# Method in brief: as §1
# H3255 = system: H3255
# Method in brief: as §1
# NCI-H1993 = system: NCI-H1993
# Method in brief: as §1
# NCI-H2087 = system: NCI-H2087
# Method in brief: as §1
# NCI-H2170 = system: NCI-H2170
# Method in brief: as §1
# HARA = system: HARA
# Method in brief: as §1
# SK-MES-1 = system: SK-MES-1
# Method in brief: as §1
# NCI-H650 = system: NCI-H650
# Method in brief: as §1
# LU99A = system: LU99A
# Method in brief: as §1
smiles,measurement,setting,value
Cc1csc(=NC2CCCCC2)n1/N=C/c1ccc(O)c(O)c1O [MIM1] + O=C(CCCCCCC(=O)Nc1ccccc1)NO [Vorinostat] (partner 1 µM),relative viability,UMC-11; first compound 0.2 µM,0.501
same,relative viability,UMC-11; first compound 0.6325 µM,0.392
same,relative viability,UMC-11; first compound 2 µM,0.438
same,relative viability,UMC-11; first compound 6.325 µM,0.243
same,relative viability,UMC-11; first compound 20 µM,0.147
same,relative viability,BEN; first compound 0.2 µM,0.587
same,relative viability,BEN; first compound 0.6325 µM,0.546
same,relative viability,BEN; first compound 2 µM,0.562
same,relative viability,BEN; first compound 6.325 µM,0.511
same,relative viability,BEN; first compound 20 µM,0.394
same,relative viability,NCI-H2126; first compound 0.2 µM,0.745
same,relative viability,NCI-H2126; first compound 0.6325 µM,0.454
same,relative viability,NCI-H2126; first compound 2 µM,0.838
same,relative viability,NCI-H2126; first compound 6.325 µM,0.711
same,relative viability,NCI-H2126; first compound 20 µM,0.404
same,relative viability,HCC-78; first compound 0.2 µM,0.452
same,relative viability,HCC-78; first compound 2 µM,0.38
same,relative viability,HCC-78; first compound 6.325 µM,0.424
same,relative viability,HCC-78; first compound 20 µM,0.438
same,relative viability,NCI-H1395; first compound 0.2 µM,0.799
same,relative viability,NCI-H1395; first compound 0.6325 µM,0.626
same,relative viability,NCI-H1395; first compound 2 µM,0.641
same,relative viability,NCI-H1395; first compound 6.325 µM,0.422
same,relative viability,NCI-H1395; first compound 20 µM,0.322
same,relative viability,SW 900; first compound 0.2 µM,0.45
same,relative viability,SW 900; first compound 0.6325 µM,0.632
same,relative viability,SW 900; first compound 2 µM,0.549
same,relative viability,SW 900; first compound 6.325 µM,0.175
same,relative viability,SW 900; first compound 20 µM,0.187
same,relative viability,LC-2-ad; first compound 0.2 µM,0.698
same,relative viability,LC-2-ad; first compound 0.6325 µM,0.306
same,relative viability,LC-2-ad; first compound 2 µM,0.777
same,relative viability,LC-2-ad; first compound 6.325 µM,0.267
same,relative viability,LC-2-ad; first compound 20 µM,0.204
same,relative viability,EMC-BAC-2; first compound 0.2 µM,0.492
same,relative viability,EMC-BAC-2; first compound 0.6325 µM,0.302
same,relative viability,EMC-BAC-2; first compound 2 µM,0.404
same,relative viability,EMC-BAC-2; first compound 6.325 µM,0.313
same,relative viability,EMC-BAC-2; first compound 20 µM,0.157
same,relative viability,LOU-NH91; first compound 0.2 µM,0.672
same,relative viability,LOU-NH91; first compound 0.6325 µM,0.822
same,relative viability,LOU-NH91; first compound 2 µM,0.699
same,relative viability,LOU-NH91; first compound 6.325 µM,0.359
same,relative viability,LOU-NH91; first compound 20 µM,0.298
same,relative viability,COR-L 105; first compound 0.2 µM,0.809
same,relative viability,COR-L 105; first compound 0.6325 µM,0.821
same,relative viability,COR-L 105; first compound 2 µM,0.774
same,relative viability,COR-L 105; first compound 6.325 µM,0.731
same,relative viability,COR-L 105; first compound 20 µM,0.616
same,relative viability,RERF-LC-KJ; first compound 0.2 µM,0.616
same,relative viability,RERF-LC-KJ; first compound 0.6325 µM,0.558
same,relative viability,RERF-LC-KJ; first compound 2 µM,0.507
same,relative viability,RERF-LC-KJ; first compound 6.325 µM,0.317
same,relative viability,RERF-LC-KJ; first compound 20 µM,0.225
same,relative viability,HOP-62; first compound 0.2 µM,0.655
same,relative viability,HOP-62; first compound 0.6325 µM,0.469
same,relative viability,HOP-62; first compound 2 µM,0.541
same,relative viability,HOP-62; first compound 6.325 µM,0.379
same,relative viability,HOP-62; first compound 20 µM,0.0827
same,relative viability,LXF-289; first compound 0.2 µM,0.777
same,relative viability,LXF-289; first compound 0.6325 µM,0.462
same,relative viability,LXF-289; first compound 2 µM,0.665
same,relative viability,LXF-289; first compound 6.325 µM,0.499
same,relative viability,LXF-289; first compound 20 µM,0.304
same,relative viability,201T; first compound 0.2 µM,0.974
same,relative viability,201T; first compound 0.6325 µM,0.952
same,relative viability,201T; first compound 2 µM,0.935
same,relative viability,201T; first compound 6.325 µM,0.528
same,relative viability,201T; first compound 20 µM,0.3
same,relative viability,H3255; first compound 0.2 µM,0.776
same,relative viability,H3255; first compound 0.6325 µM,0.901
same,relative viability,H3255; first compound 2 µM,0.759
same,relative viability,H3255; first compound 6.325 µM,0.67
same,relative viability,H3255; first compound 20 µM,0.321
same,relative viability,NCI-H1993; first compound 0.2 µM,0.851
same,relative viability,NCI-H1993; first compound 0.6325 µM,0.601
same,relative viability,NCI-H1993; first compound 2 µM,0.601
same,relative viability,NCI-H1993; first compound 6.325 µM,0.348
same,relative viability,NCI-H1993; first compound 20 µM,0.413
same,relative viability,NCI-H2087; first compound 0.2 µM,0.68
same,relative viability,NCI-H2087; first compound 0.6325 µM,0.536
same,relative viability,NCI-H2087; first compound 2 µM,0.877
same,relative viability,NCI-H2087; first compound 6.325 µM,0.596
same,relative viability,NCI-H2087; first compound 20 µM,0.497
same,relative viability,NCI-H2170; first compound 0.2 µM,0.786
same,relative viability,NCI-H2170; first compound 0.6325 µM,0.696
same,relative viability,NCI-H2170; first compound 2 µM,0.748
same,relative viability,NCI-H2170; first compound 6.325 µM,0.479
same,relative viability,NCI-H2170; first compound 20 µM,0.138
same,relative viability,HARA; first compound 0.2 µM,0.523
same,relative viability,HARA; first compound 0.6325 µM,0.467
same,relative viability,HARA; first compound 2 µM,0.56
same,relative viability,HARA; first compound 6.325 µM,0.511
same,relative viability,HARA; first compound 20 µM,0.0696
same,relative viability,SK-MES-1; first compound 0.2 µM,1.02
same,relative viability,SK-MES-1; first compound 0.6325 µM,0.953
same,relative viability,SK-MES-1; first compound 2 µM,0.959
same,relative viability,SK-MES-1; first compound 6.325 µM,0.594
same,relative viability,SK-MES-1; first compound 20 µM,0.2
same,relative viability,NCI-H650; first compound 0.2 µM,0.481
same,relative viability,NCI-H650; first compound 0.6325 µM,0.257
same,relative viability,NCI-H650; first compound 2 µM,0.402
same,relative viability,NCI-H650; first compound 6.325 µM,0.414
same,relative viability,NCI-H650; first compound 20 µM,0.116
same,relative viability,LU99A; first compound 0.2 µM,0.515
same,relative viability,LU99A; first compound 0.6325 µM,0.435
same,relative viability,LU99A; first compound 2 µM,0.463
same,relative viability,LU99A; first compound 6.325 µM,0.387
same,relative viability,LU99A; first compound 20 µM,0.119
